Test results reported in article PMC7335187, “Super-assembly of ER-phagy receptor Atg40 induces local ER remodeling at contacts with forming autophagosomal membranes” (Nature Communications, 2020).
Where a SMILES comes first, the peptide text is derived from it.

Experiments:
Type in all cases: binding
Atg8 = Atg8 (Saccharomyces cerevisiae, UniProt P38182, K26P); experiment: biochemical
Method: ITC experiments were performed using Microcal iTC200 calorimeter (Malvern Panalytical), with stirring at 1000 rpm at 25 °C. Atg40, FAM134B, SEC62, and RTN3 peptides were prepared as injection samples from the syringe. […] In total, 200 μl Atg8, LC3A, LC3B, LC3C, GABARAP, GABARAPL1, and GABARAPL2 with 10 times lower concentration than the syringe samples were filled in the cell. […] The titration involved 18 injections of 2 μl of the syringe sample at intervals of 120 s into a cell after one injection of 0.4 μl of syringe sample. Data sets obtained from the titration of the same syringe sample to the cell filled with buffer were used as reference data for subtraction of heat of dilution. MicroCal Origin 7.0 software was used for data analysis. Thermal measurement of the first injection of the syringe samples was removed from the analysis.

GABARAPL1 WT = GABARAPL1 WT (Homo sapiens, UniProt Q9H0R8); experiment: ITC of peptides with GABARAPL1; conditions: 25 °C, ± fitting error
Method: (§1) Some of peptides (Supplementary Table 4) and all proteins except Atg40-6His were expressed in E. coli BL21 (DE3). Bacteria were cultured at 37 °C until OD600 became 0.8–1.0 and further cultured at 16 °C with 100 μM IPTG overnight. After centrifugation, the pellets were resuspended with 20 ml PBS with 0.5 mM EDTA and lysed by sonication for 10 min. After centrifugation, the supernatants were incubated with GST-accept resin (Nacalai tesque). After three times wash by PBS, the proteins were eluted with glutathione buffer (10 mM glutathione and 50 mM Tris pH 8.0). The buffer of the eluates was exchanged with PBS by a Bio-Scale Mini BioGel P-6 desalting column (Bio-Rad). After incubation with GST-fused HRV 3 C protease at 4 °C overnight, the samples were subjected to a GST-accept resin column to remove excised GST and the protease. RTN3^245–264-GABARAP was purified by cation-exchange chromatography using CM Sepharose FF column (GE Healthcare) with 500 mM MES pH 6.0 as buffer B and 50 mM MES pH 6.0 and 1 M NaCl as buffer C. The samples were further subjected to size-exclusion chromatography with 20 mM HEPES pH 6.8, 150 mM sodium chloride except for mCherry-Atg8-CC^tetramer (20 mM HEPES pH 6.8, 500 mM sodium chloride) using a Superdex 75 10/300 or Superdex 200 26/60 column. […]

LC3A WT = LC3A WT (Homo sapiens, UniProt Q9H492); experiment: ITC of peptides with LC3A; conditions: 25 °C, ± fitting error
Method: (§2) Some of peptides (Supplementary Table 4) and all proteins except Atg40-6His were expressed in E. coli BL21 (DE3). Bacteria were cultured at 37 °C until OD600 became 0.8–1.0 and further cultured at 16 °C with 100 μM IPTG overnight. After centrifugation, the pellets were resuspended with 20 ml PBS with 0.5 mM EDTA and lysed by sonication for 10 min. After centrifugation, the supernatants were incubated with GST-accept resin (Nacalai tesque). After three times wash by PBS, the proteins were eluted with glutathione buffer (10 mM glutathione and 50 mM Tris pH 8.0). The buffer of the eluates was exchanged with PBS by a Bio-Scale Mini BioGel P-6 desalting column (Bio-Rad). After incubation with GST-fused HRV 3 C protease at 4 °C overnight, the samples were subjected to a GST-accept resin column to remove excised GST and the protease. RTN3^245–264-GABARAP was purified by cation-exchange chromatography using CM Sepharose FF column (GE Healthcare) with 500 mM MES pH 6.0 as buffer B and 50 mM MES pH 6.0 and 1 M NaCl as buffer C. The samples were further subjected to size-exclusion chromatography with 20 mM HEPES pH 6.8, 150 mM sodium chloride except for mCherry-Atg8-CC^tetramer (20 mM HEPES pH 6.8, 500 mM sodium chloride) using a Superdex 75 10/300 or Superdex 200 26/60 column. As described in Supplementary Table 4, the Atg40^237–252 M245A and Atg40^237–252 D243A D247A peptides were synthesized by Cosmo Bio, and the FAM134B^453–460 and SEC62^361–368 peptides were synthesized by BEX Co., Ltd. The Atg40^234–252 peptide and its variants were prepared using Liberty Blue peptide synthesizer (CEM Corporation). After dissolving these synthesized peptides in 300 μl water with ~10 μl ammonium hydroxide, they were subjected to size-exclusion chromatography with 20 mM HEPES pH 6.8 containing 150 mM sodium chloride using a Superdex 75 10/300 column.
Peptides used in ITC are listed in Supplementary Table 4. ITC experiments were performed using Microcal iTC200 calorimeter (Malvern Panalytical), with stirring at 1000 rpm at 25 °C. […]

LC3C WT = LC3C WT (Homo sapiens, UniProt Q9BXW4); experiment: ITC of peptides with LC3C; conditions: 25 °C, ± fitting error
Method: as §2
Peptides used in ITC are listed in Supplementary Table 4. ITC experiments were performed using Microcal iTC200 calorimeter (Malvern Panalytical), with stirring at 1000 rpm at 25 °C. Atg40, FAM134B, SEC62, and RTN3 peptides were prepared as injection samples from the syringe. Concentrations of FAM134B, SEC62, and RTN3 peptides were 0.5 mM, whereas those of Atg40^234–252 and Atg40^237–252 peptides were 2.0 and 1.8 mM, respectively. In total, 200 μl Atg8, LC3A, LC3B, LC3C, GABARAP, GABARAPL1, and GABARAPL2 with 10 times lower concentration than the syringe samples were filled in the cell. As an exception, 1.8 mM Atg8 was filled in the cell when 1.8 mM Atg40^237–252 D243A D247A was in a syringe. The titration involved 18 injections of 2 μl of the syringe sample at intervals of 120 s into a cell after one injection of 0.4 μl of syringe sample. […]

GABARAPL2 WT = GABARAPL2 WT (Homo sapiens, UniProt P60520); experiment: ITC of peptides with GABARAPL2; conditions: 25 °C, ± fitting error
Method: as §1

LC3B WT = LC3B WT (Rattus norvegicus, UniProt Q62625); experiment: ITC of peptides with LC3B; conditions: 25 °C, ± fitting error
Source text: All plasmids for expression of recombinant proteins and peptides in bacteria were based on a pGEX6P-1 vector (GE Healthcare). Construction of pGEX6P-ScAtg8 (1-116) K26P and pGEX6P-rat LC3B (1-120) was previously described[35],[47]. All mutations were generated by PCR-based mutagenesis. The genes were amplified by PCR and inserted downstream of the HRV 3C protease recognition site by NEBuilder HiFi DNA Assembly Master Mix (New England Biolabs) except for that encoding human GABARAP (1-116), which was inserted using restriction enzymes for the NdeI and BamHI sites. Plasmids for expression of fusion proteins for crystallization were constructed by inserting the genes encoding Atg40^237–252, human FAM134B^450–468, human SEC62^361–376 with the T367D mutation, and human RTN3^245–264 isoform e into upstream of the sequence encoding Atg8 K26P of pGEX6P-Atg8 (the K26P mutation was introduced for stabilizing Atg8) or upstream of the sequence encoding GABARAP of pGEX6P-GABARAP (with the F3S V4T mutations for enhancing crystallization). For phase-separation experiments, the mCherry and BNDL1[25],[26] sequences were inserted into upstream and downstream of the ATG8 gene in pGEX6P-Atg8 K26P, respectively. pGEX-SNAP-40C was constructed by the removal of the HRV 3C protease recognition site and the insertion of the SNAP sequence from pSNAP-tag(T7) vector (New England Biolabs) with a linker (Gly–Gly–Gly–Ser–Gly–Gly–Gly) and Atg40^194–256 following a linker (Ser–Ala–Ser–Ser) to upstream and downstream of GST in pGEX6P-1 vector, respectively. In the construction of plasmids for peptide production, a Tyr residue was attached to their C termini for enabling the quantification by absorbance at 280 nm (Supplementary Table 4).
Some of peptides (Supplementary Table 4) and all proteins except Atg40-6His were expressed in E. coli BL21 (DE3). Bacteria were cultured at 37 °C until OD600 became 0.8–1.0 and further cultured at 16 °C with 100 μM IPTG overnight. After centrifugation, the pellets were resuspended with 20 ml PBS with 0.5 mM EDTA and lysed by sonication for 10 min. […]

Sequence of Atg8 (P38182 1-116 K26P): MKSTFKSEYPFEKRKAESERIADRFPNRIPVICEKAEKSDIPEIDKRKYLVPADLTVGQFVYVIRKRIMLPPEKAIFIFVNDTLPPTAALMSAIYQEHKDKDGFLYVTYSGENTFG
Sequence of LC3C WT (Q9BXW4 whole entry): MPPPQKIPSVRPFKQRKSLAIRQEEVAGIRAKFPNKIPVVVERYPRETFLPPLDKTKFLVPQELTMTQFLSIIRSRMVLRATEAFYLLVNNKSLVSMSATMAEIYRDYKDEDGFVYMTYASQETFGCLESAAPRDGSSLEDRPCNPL
Sequence of GABARAPL2 WT (P60520 whole entry): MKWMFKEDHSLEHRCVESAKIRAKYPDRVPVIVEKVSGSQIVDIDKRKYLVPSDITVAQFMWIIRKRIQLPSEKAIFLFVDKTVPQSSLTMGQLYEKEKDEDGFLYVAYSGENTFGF
Sequence of GABARAPL1 WT (Q9H0R8 whole entry, the tested form may be a part): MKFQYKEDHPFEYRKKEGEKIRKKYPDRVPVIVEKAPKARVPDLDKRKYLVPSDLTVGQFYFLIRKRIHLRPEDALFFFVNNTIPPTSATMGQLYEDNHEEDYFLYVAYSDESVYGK

Compound: CC[C@H](C)[C@H](NC(=O)[C@H](CC(=O)O)NC(=O)[C@H](CCC(=O)O)NC(=O)[C@H](CCSC)NC(=O)[C@H](Cc1ccccc1)NC(=O)[C@H](CC(=O)O)NC(=O)[C@H](Cc1ccc(O)cc1)NC(=O)[C@H](CC(=O)O)NC(=O)[C@H](CC(N)=O)NC(=O)[C@@H]1CCCN1C(=O)[C@H](Cc1ccccc1)NC(=O)[C@H](CCC(=O)O)NC(=O)[C@@H]1CCCN1C(=O)CN)C(=O)N[C@@H](CC(C)C)C(=O)N[C@@H](CC(=O)O)C(=O)N[C@@H](CCC(=O)O)C(=O)N[C@H](C(=O)O)[C@@H](C)O [Atg40^237-252 WT] (H-GPEFPNDYDFMEDILDET-OH)
- Kd (Atg8): 570 ± 510 nM
- N (site), stoichiometry of binding (Atg8; ITC, 25 °C, peptide in syringe 2.0 or 1.8 mM, Atg8 in cell 10 times lower, single-site model, ± fitting error): 0.90 ± 0.03

Compound: CC[C@H](C)[C@H](NC(=O)[C@H](CCC(N)=O)NC(=O)[C@H](CC(=O)O)NC(=O)[C@H](CC(C)C)NC(=O)[C@H](CCC(=O)O)NC(=O)[C@H](CO)NC(=O)[C@H](CCC(N)=O)NC(=O)[C@H](CC(=O)O)NC(=O)[C@H](CC(C)C)NC(=O)[C@H](CC(C)C)NC(=O)[C@H](CCC(=O)O)NC(=O)[C@H](Cc1ccccc1)NC(=O)[C@H](CC(=O)O)NC(=O)[C@H](CC(=O)O)NC(=O)CNC(=O)[C@H](CCC(=O)O)NC(=O)[C@H](CCC(=O)O)NC(=O)[C@@H](NC(=O)[C@H](CC(=O)O)NC(=O)[C@@H](NC(=O)[C@H](CC(=O)O)NC(=O)[C@H](CCC(=O)O)NC(=O)[C@H](CCC(=O)O)NC(=O)[C@@H]1CCCN1C(=O)CN)[C@@H](C)O)[C@@H](C)O)C(=O)N[C@@H](CCC(=O)O)C(=O)N[C@@H](CO)C(=O)N[C@@H](CCC(=O)O)C(=O)N[C@@H](CC(C)C)C(=O)N[C@@H](Cc1ccc(O)cc1)C(=O)O [FAM134B^444-470 WT]
- Kd (GABARAPL1 WT; 0.5 mM peptide in syringe, GABARAPL1 WT in cell 10 times lower, single-site model): 120 ± 40 nM
- Kd (LC3A WT; 0.5 mM peptide in syringe, LC3A WT in cell 10 times lower, single-site model): 210 ± 30 nM
- Kd (LC3C WT; 0.5 mM peptide in syringe, LC3C WT in cell 10 times lower, single-site model, read-out: Kd): 1110 ± 350 nM
- Kd (GABARAPL2 WT; 0.5 mM peptide in syringe, GABARAPL2 WT in cell 10 times lower, single-site model): 300 ± 100 nM
- Kd (LC3B WT; 0.5 mM peptide in syringe, LC3B WT in cell 10 times lower, single-site model): 620 ± 160 nM

Compound: CC[C@H](C)[C@H](NC(=O)[C@H](CCSC)NC(=O)[C@H](CCC(=O)O)NC(=O)[C@H](Cc1ccccc1)NC(=O)[C@H](CC(=O)O)NC(=O)[C@H](CC(N)=O)NC(=O)CNC(=O)[C@H](CC(N)=O)NC(=O)CNC(=O)[C@H](CO)NC(=O)[C@H](CO)NC(=O)[C@H](Cc1c[nH]cn1)NC(=O)[C@@H]1CCCN1C(=O)CN)C(=O)N[C@H](C(=O)N[C@@H](CCCCN)C(=O)N[C@@H](CCC(=O)O)C(=O)N[C@@H](CCC(=O)O)C(=O)N[C@@H](CC(C)C)C(=O)N[C@@H](CCC(=O)O)C(=O)N[C@@H](CCC(N)=O)C(=O)N[C@@H](CCC(N)=O)C(=O)N[C@H](C(=O)N[C@@H](CC(=O)O)C(=O)N[C@@H](Cc1ccc(O)cc1)C(=O)O)[C@@H](C)O)[C@@H](C)O [SEC62^355-376 WT] (H-GPHSSGNGNDFEMITKEELEQQTDY-OH)
- N (site), stoichiometry of binding (GABARAPL1 WT; GABARAPL1 WT in cell): 0.83 ± 0.01
- N (site), stoichiometry of binding (LC3A WT; LC3A WT in cell): 0.78 ± 0.01
- N (site), stoichiometry of binding (LC3C WT; LC3C WT in cell, N fixed to 1.0 when fitting not convergent): 0.46 ± 0.02
- N (site), stoichiometry of binding (GABARAPL2 WT; GABARAPL2 WT in cell, N fixed to 1.0 when fitting not convergent): 0.78 ± 0.01
- N (site), stoichiometry of binding (LC3B WT; LC3B WT in cell, N fixed to 1.0 when fitting not convergent): 0.74 ± 0.01
